The assay has as its system CEM cells HIV-1 protection, formazan growth assay. The assay can be described thus: NCI AIDS Antiviral Assay. The conditions noted are these: for IC50: measured here: growth of uninfected CEM cells. Put shortly:
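Human CEM cells, uninfected and HIV-1-infected, received five drug concentrations, and growth was read by soluble formazan assay. Compounds giving at least 50% protection were retested; reproducible 100% protection defined confirmed active.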

Activity calls are given as the source filed them.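 The calls were made as follows: active = compounds giving half or more protection of infected cells from virus-caused growth loss, again on retest; inactive = the rest.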 Bounds are passed on as bounds.

This note sets out measurements from PubChem BioAssay AID179 (DTP/NCI, 2004).

One may read the EC50 as the midpoint of the concentration-response curve. As usually defined, the IC50 is the concentration that gives 50% inhibition. Low values mean higher potency, high ones lower potency.

With `O=[N+]([O-])c1ccccc1S(=O)NCc1c(Cl)cccc1Cl` (stereo not drawn), the EC50 is greater than 200 µM and the IC50 is greater than 200 µM.

In the case of `O=C(C#CP(=O)(O)c1ccccc1)c1ccccc1`, the EC50 is greater than 200 µM and the IC50 was greater than 200 µM. In the case of `Cc1ccc([N+](=O)[O-])cc1NC(=O)/C(CC(=O)c1sc(C(N)=S)nc1C)=N\N`, the result was inactive.

With `CC1(C)OC(=O)C(=Cc2cccc(F)c2)C(=O)O1`, the EC50 is greater than 525 µM and the IC50 is greater than 525 µM.

For the compound `OC(CCN1CCOCC1)(c1cccc(Cl)c1)C1CCCCC1` (stereo not drawn), the EC50 was greater than 200 µM and the IC50 amounted to 41.7 µM. `CC(/C=C1\N=C(c2ccccc2)OC1=O)=C\c1ccccc1`: the EC50 was greater than 200 µM and the IC50 was 105 µM. In the same order, the values of `COC(=O)C12C3C4C1C1C2C3C41C(=O)O` (stereo not drawn) are greater than 1200 µM and greater than 1200 µM. In the same order, the values of `CCCCSc1cc(Cc2cc(C)ccc2O)c(O)c(Cc2cc(C)ccc2O)c1` are greater than 200 µM and 10 µM. For `O=C(Nc1ccn(C2CC(O)C(COC(c3ccccc3)(c3ccccc3)c3ccccc3)O2)c(=O)n1)c1ccccc1` (stereo not drawn) the same measures were greater than 200 µM and 7.41 µM. Consider `CC(NC(=O)OC(C)(C)C)C(=O)NC1CCCC1` (stereo not drawn), for which the EC50 is greater than 200 µM and the IC50 was greater than 200 µM. As to `CC1=NCCC[N-]CC[N-]CCCN=C1C.[Ni+2].[O-][Cl+3]([O-])([O-])O`, the EC50 is greater than 200 µM and the IC50 is greater than 200 µM. As to `O=P(O)(O)CCCNO`, the EC50 is greater than 200 µM and the IC50 is greater than 200 µM. Take `COc1ccc(/C=[N+](\[O-])[C@H](COCc2ccccc2)c2ccccc2)cc1`: the EC50 is greater than 72.4 µM and the IC50 was greater than 72.4 µM. Turning to `COC(=O)c1c(C)cccc1CC1Cc2c(C)cccc2C1=O` (stereo not drawn), the EC50 is greater than 200 µM and the IC50 is 41.7 µM. In the case of `C[n+]1c2ccccc2c(NC(CS)C(=O)O)c2ccccc21` (stereo not drawn), the outcome was inactive. On to `CCCOC(=O)C(F)C(Br)C(=O)OCCC` (stereo not drawn), for which the EC50 is greater than 200 µM and the half-inhibitory concentration (IC50) worked out at 3.16 µM.

In the case of `Cc1cc(NS(=O)(=O)c2ccc(N=Nc3c(Nc4ccccc4)nn(-c4ccc(S(=O)(=O)Nc5ccncn5)cc4)c3C)cc2)no1`, the EC50 is greater than 200 µM and the IC50 is greater than 200 µM. For `CCOC(=O)Nc1sc2c(c1C#N)CCCC2`, the EC50 is 41.7 µM and the IC50 was 105 µM.

In the case of `C[S+](C)c1ccccc1`, the EC50 was greater than 1050 µM and the IC50 turned out to be 457 µM.

Turning to `COc1cc2c(=O)cnoc2cc1O`, the EC50 was greater than 200 µM and the IC50 was determined as 26.3 µM.

`O=C1CCN=C(NC(=O)C(F)(F)F)N1CCc1c[nH]c2ccccc12`: the EC50 was greater than 200 µM and the IC50 was greater than 200 µM.

With `O=c1cc(-c2ccccc2)oc2cc(OCC(O)COc3ccc4c(=O)cc(-c5ccccc5)oc4c3)ccc12`, the EC50 was greater than 25.7 µM and the IC50 is greater than 25.7 µM. As for `Nc1nc(Cl)cc(NCC2(CO)CC(OCc3ccccc3)C2)n1` (stereo not drawn), the EC50 is greater than 200 µM and the IC50 came to 6.03 µM. For `COc1ccc2nc3nc(-c4ccccc4)c(-c4ccccc4)nc3nc2c1` the same measures were 0.0813 µM and 3.98 µM. `COCOC1/C=C/CCCCC2=C(C)C=C(C1)O2` (stereo not drawn): the EC50 was greater than 141 µM and the IC50 is 132 µM.

Consider `COc1cc(NS(=O)(=O)c2ccc(C)cc2)c2nccnc2c1`, for which the EC50 was greater than 204 µM and the IC50 was 77.6 µM.

In the case of `COC(=O)C12C(=O)O[C@H](C)C1(O)C(C)C(=O)N2C` (stereo partly drawn), the outcome was inactive. Take `CCCN1CN(C(C(=O)N[C@@H]2C(=O)N3C2SC(C)(C)C3C(=O)O)c2ccccc2)CSC1=S` (stereo partly drawn): the EC50 was greater than 257 µM and the half-maximal inhibitory concentration (IC50) came to 148 µM. In the case of `O=C(CCCl)NNC1=NCCCN1`, the EC50 was greater than 200 µM and the IC50 is greater than 200 µM. `O=C1CCCCc2cccc(O)c21`: the EC50 was greater than 200 µM and the IC50 was greater than 200 µM.

For `CCCCCCCCCCCCCCCCCCOC(COP(=O)(O)OCC1OC(n2cc(F)c(=O)[nH]c2=O)CC1O)COP(=O)(O)OCC1OC(n2cc(C)c(=O)[nH]c2=O)CC1N=[N+]=[N-]` (stereo not drawn), the EC50 is greater than 5.75 µM and the IC50 came out at 0.0501 µM.

With `C=C(C)C#CC1(O)C=C(OC)C(OC)=CC1=O` (stereo not drawn), the EC50 was greater than 200 µM and the IC50 is 20.9 µM. In the same order, the values of `Cc1nn(C)pc1P(C)(=S)n1nc(N(C)C)np1` (stereo not drawn) are greater than 776 µM and greater than 776 µM. With `CCOC(=O)c1cc(-c2ccc(Cl)cc2)c([N+](=O)[O-])n1C`, the EC50 is greater than 200 µM and the IC50 stood at 26.9 µM. Turning to `Cc1c(Cl)cccc1NC(=O)CN(CC(C)C)CC(C)C`, the EC50 was greater than 200 µM and the IC50 was found to be 33.1 µM. For `O=C1c2ccccc2C(=O)N1C/C(Cl)=C/Cl` the same measures were greater than 200 µM and greater than 200 µM. In the same order, the values of `Oc1cc2c(cc1O)-c1[nH]ncc1CC2` are greater than 67.6 µM and 33.1 µM.

Take `O=S(=O)(O)c1ccc2c(N=Nc3ccc(S(=O)(=O)O)c4ccccc34)c(O)c(S(=O)(=O)O)cc2c1`: the EC50 was greater than 100 µM, the outcome was inactive and the IC50 is greater than 100 µM. On to `CC1CC2OC(=N)C1(C#N)C2(C#N)C#N` (stereo not drawn), for which the EC50 was greater than 200 µM and the IC50 was 10.5 µM.

For `COc1cc2c(cc1OC)-c1cc3ccccc3c[n+]1CC2`, the EC50 is greater than 200 µM and the IC50 is greater than 200 µM.

As for `CC(CN(C)C)Sc1nnc(SC(C)CN(C)C)s1` (stereo not drawn), the outcome was inactive. `c1ccc2sc(N3CCCCC3)nc2c1`: the EC50 was greater than 200 µM and the IC50 was determined as 81.3 µM. As for `COc1cc(C2C(C(=O)Nc3ccc([N+](=O)[O-])cc3)=C(C)NC(C)=C2C(=O)Nc2ccc([N+](=O)[O-])cc2)ccc1O`, the EC50 is greater than 9.33 µM and the IC50 is greater than 9.33 µM.

For `Cc1ccc(S(=O)(=O)N(/N=C(\N)Oc2ccc(Cl)cc2)C(=N)Oc2ccc(Cl)cc2)cc1`, the EC50 was greater than 100 µM and the IC50 was greater than 100 µM. Regarding `COc1cc(C2c3cc4c(cc3OC(NCCO)C2C)OCO4)cc(OC)c1O` (stereo not drawn), the EC50 was greater than 200 µM and the IC50 amounted to 3.16 µM. `Cc1ccc(C2(O)c3cccc4cccc(c34)C2(O)c2ccc(C)cc2)cc1` (stereo not drawn): the EC50 is greater than 200 µM and the IC50 turned out to be 13.5 µM. For `CC1(Cl)CCC2(CC1Br)C(C)(C)C(Br)=CC1OC12C` (stereo not drawn) the same measures were greater than 200 µM and 33.9 µM. As for `CCCCCC=C(c1cc(Br)c(O)c(C(=O)O)c1)c1cc(Br)c(O)c(C(=O)O)c1`, the EC50 was greater than 813 µM and the IC50 was 151 µM. In the same order, the values of `CC(C)(C)C(=O)/C=C/c1cccc(C#N)c1` are greater than 123 µM and 6.61 µM. In the same order, the values of `COC(=O)[C@@]12C(=O)C(C)C(=O)[C@]1(C)C(C)=C[C@H]1[C@]3(C=O)CC[C@H](OC(C)=O)C(C)(C)[C@H]3CC[C@@]12C` (stereo partly drawn) are greater than 200 µM and 97.7 µM.

Regarding `O=S1(=O)OC(c2ccc(O)cc2)(c2ccc(O)cc2)c2ccccc21`, the result was inactive. With `COc1cccc(/C=C/c2nccc3ccccc23)c1OC`, the EC50 is greater than 200 µM and the IC50 turned out to be 12.9 µM.

Turning to `O=[N+]([O-])/C(C(Cl)=C(Cl)Cl)=C1/OCCS1`, the EC50 was greater than 200 µM and the IC50 is 107 µM. For `CC(C)=CC(=O)C/C(=N\NC(N)=S)C(=O)Nc1ccc(Cl)cc1` the same measures were greater than 37.2 µM and greater than 37.2 µM. In the same order, the values of `[N-]=[N+]=NC1CC(n2cc(Cc3ccccc3)c(=O)[nH]c2=O)OC1COC(=O)CCC(=O)O` (stereo not drawn) are greater than 562 µM and greater than 562 µM. With `N#CC12Cc3cc4c(cc3-c3cccc(c31)CCN2C(=O)c1ccccc1)OCO4` (stereo not drawn), the outcome was inactive. For the compound `COC(=O)c1cc(C(=CCCOS(C)(=O)=O)c2cc(Cl)c(OC)c(C(=O)OC)c2)cc(Cl)c1OC`, the EC50 is greater than 200 µM and the IC50 is 14.5 µM. With `COc1ccccc1/C=C1\C(=O)N(C(=O)Cc2ccccc2)N=C1C`, the EC50 was greater than 15.5 µM and the IC50 was greater than 15.5 µM. Take `c1ccc2c(c1)c1c(n2CCOCCN2CCCC2)CCCC1`: the EC50 was greater than 200 µM and the IC50 is 9.55 µM. In the same order, the values of `COC(=O)/C(=N/NC(C)(C)C)C(C(=O)OC)C(=O)C(=O)Nc1nc2ccc([N+](=O)[O-])cc2s1` (stereo not drawn) are greater than 53.7 µM and greater than 53.7 µM. `O=Cc1cn(CCCCCCCCCCCCn2cc(C=O)c3ccccc32)c2ccccc12`: the EC50 was greater than 200 µM and the IC50 is 1.2 µM.

With `Cc1cc(NS(=O)(=O)c2ccc(NC(=O)c3cccc4c(Nc5ccc(S(=O)(=O)Nc6cc(C)on6)cc5)c5ccccc5nc34)cc2)no1`, the EC50 is greater than 36.3 µM and the IC50 is greater than 36.3 µM. In the case of `N#Cc1c(N2CCC(O)C2)c2ccccc2n2c1nc1ccccc12` (stereo not drawn), the EC50 was greater than 50.1 µM and the IC50 was greater than 50.1 µM. For `COc1ccc(C2=C(N)c3c(OC)cccc3C2=O)cc1`, the EC50 is greater than 200 µM and the IC50 was greater than 200 µM. Regarding `COC(=O)C(Cc1cccc(OC)c1)NC(=O)OC(C)(C)C` (stereo not drawn), the result was inactive. For the compound `CC1=CC(=O)/C(=C/n2c(=S)[nH]c3cc(C)ccc32)C(=O)O1`, the EC50 is greater than 200 µM and the IC50 turned out to be 195 µM. For `C[n+]1c2cc(N)ccc2cc2ccc(N)cc21` (tested in a mixture with another compound) the same measures were greater than 200 µM and 0.316 µM.

`CCOC(=O)C(Cc1c[nH]c2cc([N+](=O)[O-])ccc12)NS(=O)(=O)c1ccc2ccccc2c1` (stereo not drawn): the EC50 is greater than 15.5 µM and the IC50 was greater than 15.5 µM. As for `C=CCOc1ccc2c(C)cc(=O)oc2c1C`, the EC50 is greater than 112 µM and the IC50 amounted to 102 µM.

Consider `O=C1c2ccccc2C(=O)N1C/C=N/NS(=O)(=O)c1ccc2ccccc2c1`, for which the EC50 is greater than 240 µM and the IC50 was greater than 240 µM. With `C/C(=N\NC(N)=O)c1ccc(Cl)cc1`, the EC50 was greater than 123 µM and the IC50 is greater than 123 µM.

On to `COC(OC)c1cccc2c1C(=O)CCC1(CC2)OCCCCO1`, for which the EC50 is greater than 200 µM and the IC50 was greater than 200 µM.
